The test system of the experiment is BDF1 mice, P388 leukemia ip, median survival T/C. Briefly: NCI In Vivo Anticancer Drug Screen. Data for tumor model P388 Leukemia (intraperitoneal) in B6D2F1 (BDF1) mice. The note with it: endpoint: median survival time, higher = longer survival. The method in brief: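 Reported as T/C, where T is the survival measurement in dosed animals and C the same measurement in vehicle controls.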

Where [1] appears, read: dose: 50.0 mg/kg/injection, schedule: Q01DX009 (ip), vehicle: Klucel (hydroxypropylcellulose) (HPC).
Setting [2] is: dose: 100.0 mg/kg/injection, schedule: Q04DX003 (ip), vehicle: saline with Tween-80.
[3] abbreviates: dose: 50.0 mg/kg/injection, schedule: Q01DX009 (ip), vehicle: saline with Tween-80.
[4] abbreviates: dose: 50.0 mg/kg/injection, schedule: Q04DX003 (ip), vehicle: saline with Tween-80.

Structures are written as SMILES. “And” between values parts separate entries of the source, which are not always exact repeats. Identical values can stand only once. Inconclusive results and toxic doses are left out.

With `O=S(=O)(O)SCCNCCCCCC1CCCCC1`, the T/C reads like this: (dose: 0.75 mg/kg/injection, schedule: Q01DX009 (ip), vehicle: saline) 100 % of control; (dose: 1.5 mg/kg/injection, schedule: Q01DX009 (ip), vehicle: saline) 100 % of control; (dose: 3.0 mg/kg/injection, schedule: Q01DX009 (ip), vehicle: Klucel (hydroxypropylcellulose) (HPC)) 100 % of control; (dose: 3.0 mg/kg/injection, schedule: Q01DX009 (ip), vehicle: saline) 100 % of control; (dose: 6.0 mg/kg/injection, schedule: Q01DX009 (ip), vehicle: Klucel (hydroxypropylcellulose) (HPC)) 115 % of control; (dose: 6.0 mg/kg/injection, schedule: Q01DX009 (ip), vehicle: saline) 105 % of control.
With `C[C@]12CC[C@H]3[C@@H](CC[C@]4(O)C[C@@H](O)CC[C@]34C=O)[C@@]1(O)CC[C@@H]2C1=CC(=O)OC1`, the T/C is 105 % of control (dose: 12.5 mg/kg/injection, schedule: Q01DX009 (ip), vehicle: Klucel (hydroxypropylcellulose) (HPC)); 95 % of control (dose: 25.0 mg/kg/injection, schedule: Q01DX009 (ip), vehicle: Klucel (hydroxypropylcellulose) (HPC)); 100 % of control (dose: 25.0 mg/kg/injection, schedule: Q01DX010 (ip), vehicle: carboxymethylcellulose (CMC)); 109 % of control and 115 % of control under setting [1]; 100 % of control (dose: 100.0 mg/kg/injection, schedule: Q01DX009 (ip), vehicle: Klucel (hydroxypropylcellulose) (HPC)); 105 % of control (dose: 100.0 mg/kg/injection, schedule: Q01DX010 (ip), vehicle: carboxymethylcellulose (CMC)). Moreover, the T/C is, setting by setting: (dose: 200.0 mg/kg/injection, schedule: Q01DX009 (ip), vehicle: Klucel (hydroxypropylcellulose) (HPC)) 100 % of control; (dose: 200.0 mg/kg/injection, schedule: Q01DX010 (ip), vehicle: carboxymethylcellulose (CMC)) 105 % of control.
Take `COc1ccc(OC)c(NC(=O)C2CC2)c1`: the T/C is, setting by setting: (dose: 75.0 mg/kg/injection, schedule: Q01DX009 (ip), vehicle: saline with Tween-80) 100 % of control; (dose: 100.0 mg/kg/injection, schedule: Q04DX003 (ip), vehicle: saline sonified) 109 % of control; (dose: 150.0 mg/kg/injection, schedule: Q01DX009 (ip), vehicle: saline with Tween-80) 100 % of control; (dose: 200.0 mg/kg/injection, schedule: Q04DX003 (ip), vehicle: saline sonified) 113 % of control; (dose: 300.0 mg/kg/injection, schedule: Q01DX009 (ip), vehicle: saline with Tween-80) 100 % of control; (dose: 400.0 mg/kg/injection, schedule: Q04DX003 (ip), vehicle: saline sonified) 100 % of control.
As to `N=C(N)c1ccc(Nc2ccc(C(=N)N)cc2)cc1`, the T/C (dose: 3.0 mg/kg/injection, schedule: Q01DX010 (ip), vehicle: saline) was 100 % of control; the T/C (dose: 6.0 mg/kg/injection, schedule: Q01DX010 (ip), vehicle: saline) is 91 % of control and 95 % of control; the T/C (dose: 12.0 mg/kg/injection, schedule: Q01DX010 (ip), vehicle: saline) was 91 % of control and 100 % of control; the T/C (dose: 24.0 mg/kg/injection, schedule: Q01DX010 (ip), vehicle: saline) was 95 % of control.
Take `O=C1CCCC1C(=O)Nc1cccc2cccnc12` (configuration not stated): the T/C by setting is: under setting [2], 117 % of control; (dose: 200.0 mg/kg/injection, schedule: Q04DX003 (ip), vehicle: saline with Tween-80) 95 % of control; (dose: 400.0 mg/kg/injection, schedule: Q04DX003 (ip), vehicle: saline with Tween-80) 100 % of control.
In the case of `COC(=O)c1c(C)ccc2c(O)c3c(cc12)C(=O)c1c2c(cc(O)c1C3=O)C1(C)OC(C)(O2)C(O)C(N(C)C)C1O` (configuration not stated), the T/C is, setting by setting: (dose: 70.0 mg/kg/injection, schedule: Q01DX009 (ip), vehicle: Klucel (hydroxypropylcellulose) (HPC)) 150 % of control; (dose: 140.0 mg/kg/injection, schedule: Q01DX009 (ip), vehicle: Klucel (hydroxypropylcellulose) (HPC)) 111 % of control.
In the case of `O=C(Nc1ccc(NC2=NCCN2)cc1)c1ccc(C(=O)Nc2ccc(NC3=NCCN3)cc2)cc1`, the T/C runs as follows: (dose: 2.0 mg/kg/injection, schedule: Q01DX010 (ip), vehicle: saline) 165 % of control and 180 % of control; (dose: 4.0 mg/kg/injection, schedule: Q01DX010 (ip), vehicle: saline) 260 % of control and 205 % of control; (dose: 8.0 mg/kg/injection, schedule: Q01DX010 (ip), vehicle: saline) 260 % of control and 285 % of control; (dose: 16.0 mg/kg/injection, schedule: Q01DX010 (ip), vehicle: saline) 105 % of control and 110 % of control.
Regarding `Nc1ccc(N2N=C(N3CCCC3)CC2=O)cc1`, the T/C (dose: 50.0 mg/kg/injection, schedule: Q01DX005 (ip), vehicle: saline with Tween-80) was 89 % of control; the T/C (dose: 100.0 mg/kg/injection, schedule: Q01DX005 (ip), vehicle: saline with Tween-80) is 89 % of control; the T/C (dose: 200.0 mg/kg/injection, schedule: Q01DX005 (ip), vehicle: saline with Tween-80) was 103 % of control.
With `O=C(N/N=C/c1ccc2c(c1)CCC2)c1ccccc1`, the T/C (dose: 25.0 mg/kg/injection, schedule: Q04DX003 (ip), vehicle: Klucel (hydroxypropylcellulose) (HPC)) is 100 % of control; the T/C (dose: 50.0 mg/kg/injection, schedule: Q04DX003 (ip), vehicle: Klucel (hydroxypropylcellulose) (HPC)) was 96 % of control; the T/C (dose: 100.0 mg/kg/injection, schedule: Q04DX003 (ip), vehicle: Klucel (hydroxypropylcellulose) (HPC)) is 94 % of control; the T/C (dose: 200.0 mg/kg/injection, schedule: Q04DX003 (ip), vehicle: Klucel (hydroxypropylcellulose) (HPC)) was 100 % of control.
In the case of `CCN1C(=O)CSC1=S`, the T/C was 109 % of control (dose: 62.5 mg/kg/injection, schedule: Q01DX010 (ip), vehicle: saline); 109 % of control (dose: 125.0 mg/kg/injection, schedule: Q01DX010 (ip), vehicle: saline); 90 % of control (dose: 250.0 mg/kg/injection, schedule: Q01DX010 (ip), vehicle: saline).
As to `CCCCCCCCCCSS(=O)(=O)O`, the T/C is 87 % of control (dose: 25.0 mg/kg/injection, schedule: Q01DX001 (ip), vehicle: other); 95 % of control (dose: 50.0 mg/kg/injection, schedule: Q01DX001 (ip), vehicle: other); 95 % of control (dose: 100.0 mg/kg/injection, schedule: Q01DX001 (ip), vehicle: other).
On to `CCc1noc(CC)c1CC1=C2CCC3(C)CCC(C)(C)CC3C2(C)CCC1=O` (configuration not stated), for which the T/C by setting is: (dose: 100.0 mg/kg/injection, schedule: Q01DX001 (ip), vehicle: saline with Tween-80) 95 % of control; (dose: 200.0 mg/kg/injection, schedule: Q01DX001 (ip), vehicle: saline with Tween-80) 90 % of control; (dose: 400.0 mg/kg/injection, schedule: Q01DX001 (ip), vehicle: saline with Tween-80) 90 % of control.
In the case of `O=NN(CCCl)C(=O)Nc1cc2c3ccccc3ccc2c2ccccc12`, under setting [1], the T/C is 121 % of control.
For `Clc1ccc(-c2cc(=[N+]3CCCCC3)ss2)cc1`, the T/C is 92 % of control (dose: 6.25 mg/kg/injection, schedule: Q04DX003 (ip), vehicle: saline with Tween-80); 102 % of control and 103 % of control (dose: 12.5 mg/kg/injection, schedule: Q04DX003 (ip), vehicle: saline with Tween-80); 110 % of control (dose: 25.0 mg/kg/injection, schedule: Q01DX009 (ip), vehicle: saline with Tween-80); 93 % of control and 94 % of control (dose: 25.0 mg/kg/injection, schedule: Q04DX003 (ip), vehicle: saline with Tween-80); 110 % of control under setting [3]; 98 % of control and 99 % of control and 119 % of control under setting [4]. For the same molecule, under setting [2], the T/C was 100 % of control and 102 % of control and 114 % of control.
Regarding `CS(=O)(=O)OCCN(CCOS(C)(=O)=O)c1cccc(C(F)(F)F)c1`, the T/C is 155 % of control and 168 % of control (dose: 33.0 mg/kg/injection, schedule: Q04DX003 (ip), vehicle: saline with Tween-80); 170 % of control and 190 % of control under setting [4]; 236 % of control and 190 % of control (dose: 75.0 mg/kg/injection, schedule: Q04DX003 (ip), vehicle: saline with Tween-80).
As for `O=C1C(Cl)=C(Cl)C(=O)C(/C=C/N2CCOCC2)=C1Cl`, the T/C reads like this: (dose: 6.25 mg/kg/injection, schedule: Q01DX001 (ip), vehicle: saline with Tween-80) 109 % of control; (dose: 12.5 mg/kg/injection, schedule: Q01DX001 (ip), vehicle: saline with Tween-80) 117 % of control; (dose: 25.0 mg/kg/injection, schedule: Q01DX001 (ip), vehicle: saline with Tween-80) 104 % of control; (dose: 50.0 mg/kg/injection, schedule: Q01DX001 (ip), vehicle: saline with Tween-80) 113 % of control.
On to `CCC(=O)/C(=C\c1ccccc1Cl)C(C)=O`, for which the T/C was 108 % of control under setting [3]; 116 % of control (dose: 100.0 mg/kg/injection, schedule: Q01DX009 (ip), vehicle: saline with Tween-80); 120 % of control (dose: 200.0 mg/kg/injection, schedule: Q01DX009 (ip), vehicle: saline with Tween-80).

The record behind these values is PubChem BioAssay AID328 (DTP/NCI, 2004).
